Data reported in article PMC13316224, “Expansion, functional diversification, and gene fusion events in the Ato protein family” (iScience, 2026).
Like-named read-outs stand apart in the source and are kept apart here.

Legend:
Type in all cases: cell-based
[1] = target: T1, CaAto1 (Ato1-GFP) (Candida albicans, UniProt A0A1D8PHP8); assay: competition of […]acetate uptake in cells; settings: 0.1 mM [14C]acetate, 10 mM competitor, pH 6.0, 30 °C, collective statement for most carboxylates, estimated from one concentration
T1 construct: gene FRP3; full length with C-terminal GFP at both native loci, in C. albicans cells (ATO1-GFP/ATO1-GFP)

[2] = target: T1, CaAto1 (Ato1-GFP); assay: competition of […]acetate uptake in cells; settings: read-out: % inhibition at 10 mM
[3] = target: T1, CaAto1 (Ato1-GFP); assay: […]lactate uptake in cells, against ato1 deletion strain; settings: pH 6.0, 30 °C, 1-24 mM; H+ symport; labelled compound

T1 sequence (A0A1D8PHP8 entry or part of it): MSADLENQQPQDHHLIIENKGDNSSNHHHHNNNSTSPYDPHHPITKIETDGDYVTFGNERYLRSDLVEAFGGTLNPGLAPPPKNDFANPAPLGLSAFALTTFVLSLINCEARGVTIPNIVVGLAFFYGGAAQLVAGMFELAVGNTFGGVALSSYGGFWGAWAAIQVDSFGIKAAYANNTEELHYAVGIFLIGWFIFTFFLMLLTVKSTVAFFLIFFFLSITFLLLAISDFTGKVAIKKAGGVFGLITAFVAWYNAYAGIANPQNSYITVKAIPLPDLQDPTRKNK

| Structure (SMILES) | Ki [1] | also measured |
| --- | --- | --- |
| C[C@H](O)C(=O)O [lactate] | – | Ki ([1]; read-out: Ki): > 10 mM |
| O=CO [formate] | > 10 mM | – |
| CCCC(=O)O [butyrate] | – | inhibition at 10000 µM [2]: ~50% |
| C[C@H](O)C(=O)O [[14C]lactate] | – | [14C]lactate uptake in cells, against ato1 deletion strain [3]: practically no lactate uptake was recorded in ato1Δ/Δ or ato1-10Δ/Δ strains |
| O=C(O)CC(O)(CC(=O)O)C(=O)O [citrate] | > 10 mM | – |
| CC(=O)C(=O)O [pyruvate] | – | Ki ([1]; read-out: Ki): > 10 mM |
| O=C(O)CCC(=O)O [succinate] | > 10 mM | – |
| O=C(O)C[C@H](O)C(=O)O [malate] | > 10 mM | – |
